Test results from US8796302B2 (priority 2004, dated 2014).

Experiments:
[1] = tested on: intracellular reactive oxygen species; assay: Intracellular ROS (DCFH oxidation) after LPS; type: cell-based, rat; settings: 10^−14 M, enriched-microglia cultures, LPS 10 ng/ml
Procedure: The production of intracellular reactive oxygen species was measured by DCFH oxidation. The DCFH-DA (Molecular Probes, Eugene, Oreg.) reagent passively diffuses into cells in which it is hydrolyzed by intracellular esterase to liberate 2′-7′-dichlorofluoressein which, during reaction with oxidizing species, yields a highly fluorescent compound 2′-7′-dichlorofluorescein (DCF) that is trapped inside the cell. For each measurement, a fresh stock solution of CM-H2-DCFDA (5 mM) was prepared in dimethylsulfoxide. CM-H2-DCFDA, diluted to a final concentration of 1 μM in phenol red-free HBSS containing 2% FBS and 2% HS, was added to cultures and incubated for about 30 min at about 37° C. After washing two times with warm HBSS, vehicle or stimulators in HBSS were added to cultures. After incubation for about 30 min at about 37° C., fluorescence intensity was measured at 485 nm for excitation and 530 nm for emission using a SpectraMax Gemini XS fluorescence microplate reader (Molecular Devices).
Assay of intracellular ROS is performed as follows. 5-(and −6)-Chloromethyl-2′,7′-dichlorodihydrofluorescein diacetate (CM-H2-DCFDA) (Molecular Probes, Eugene, Oreg.), a chloromethyl derivative of H2-DCFDA, passively diffuses into cells in which it is hydrolyzed by intracellular esterases to liberate 2′-7′-dichlorofluorescein (DCF) which, during reaction with oxidizing species, yields a highly fluorescent compound that is trapped inside the cell. […] Cells were seeded at 1×10^5/well in 96-well plates for one day followed by treatment with 0.6 mM or 1.2 mM VPA for 24 h. The cultures were used for the assay of intracellular ROS.
After washing two times with warm Hank's balanced salt solution (HBSS), CM-H2-DCFDA, diluted to a final concentration of 1 μM in phenol red-free HBSS, was added to cultures and incubated for 30 min at 37° C. Then cultures were added with 0.6 or 1.2 mM VPA in HBSS again for 30 min and followed the treatment with 100 ng/ml LPS for 2 hours at 37° C., fluorescence intensity was measured at 485 nm for excitation and 530 nm for emission using a SpectraMax Gemini XS fluorescence microplate reader (Molecular Devices, Sunnyvale, Calif.).

gp91/p22 = biological target: T1, gp91/p22 (Homo sapiens, UniProt P04839); assay: [3H]naloxone binding to COS-7 cells transfected with gp91/p22; settings: COS-7 gp91/p22 cells, [3H]naloxone 2 nM, displaced with 10 μM cold naloxone
T1 construct: expressed in transfected cells; host or cells: COS-7 (stably transfected); intact cells or membrane preparations
Procedure: Binding affinities of naloxone for COS-7 cells transfected with gp91/p22 was determined using either [^3H]-(+)Naloxone or [^3H]-(−)Naloxone (2 nM; PerkinEhner Life Sciences) as ligands and displaced with 10 μM of cold (−) Naloxone in HBBS containing 0.1% (W/V) fatty acids free albumin (lot B22558, Calbiochem). COS-7 cells transfected with gp91/p22 and COS-7 cells that were not transfected (WT) were detached using Versene (1:5000, GibcoBRL, Life technologies). For intact cell assays, after washing twice with HBSS, cells were transferred to micro centrifuge tubes at 10^6 cells per tube.
To acquire membrane preparations, cells were lysed in buffer ([…] Tris, pH=7.4, 2 mM EDTA, 10 μg/ml CLAP) and homogenized. Lysate was transferred to a 50 ml conical tube, where there were centrifuged at 250 g for about 10 minutes at about 4 C. The supernatant was then transferred to another tube and spun at 100,000 G for about 90 minutes. The supernatant was then discarded and the protein pellet was re-suspended in 2 ml of lysis buffer. […]
All competition reactions of either intact cells or membrane preparations were allowed to proceed at 4° C. […] After washing with HBSS four times, the filters were collected and radioactivity retained on the filters was determined by liquid Scintillation counting. All values are expressed as percentages relative to the binding capacity of the wild type control.

[2] = tested on: TH-IR (dopaminergic) neurons in mesencephalic neuron-glia cultures; assay: TH-IR neuron count and morphology in LPS-treated neuron-glia cultures; type: cell-based, rat; settings: LPS 5 ng/ml; for concentration of peak protection against LPS-induced DA neuron cell loss: 10^−12-10^−16 M tested; for LPS-induced damage of TH immuno-reactive neurons: 10^−14 M
[3] = tested on: dopaminergic neurons in rat primary mesencephalic neuron-glia cultures; assay: [3H]DA uptake in LPS-treated mesencephalic neuron-glia cultures; type: cell-based; settings: LPS 5 ng/ml; for concentration of greatest level of protection (DA uptake): 10^−12-10^−16 M tested; for enhancement of [3H]DA uptake after exposure to LPS: 30 min pretreatment, 7 days
Procedure: Neuron-glia cultures were prepared from the ventral mesencephalic tissues of embryonic day 13-14 Fisher F344 rats or day 12-13 wild-type C57BL/6J (gp91phox^+/+) mice. Dissociated cells were seeded at 1×10^5/well and 5×10^5/well to poly-D-lysine-coated 96-well and 24-well plates, respectively. Cells were maintained at about 37° C. in a humidified atmosphere of 5% CO2 and 95% air, in minimal essential medium (MEM) containing 10% fetal bovine serum (FBS), 10% horse serum (HS), 1 gm/l glucose, 2 mM L-glutamine, 1 mM sodium pyruvate, 100 μM nonessential amino acids, 50 U/ml penicillin, and 50 μg/ml streptomycin. Seven-day-old cultures were used for treatment.
Dextromethorphan (obtained from Sigma-Aldrich (St. Louis, Mo.) as dextromethorphan hydrobromide) was freshly prepared as a stock solution (1 mM) in ddH2O and sterile-filtered right before use. For treatment of the cultures, the DM was serially diluted (10×) with fresh culture medium containing 2% of fetal bovine and horse serum. The neuron-glia cultures were pretreated with 10^−5-10^−17M DM 30 minutes prior to treatment with 10 ng/ml of LPS.
Seven days after treatment, the degeneration of dopaminergic neurons was assessed by [^3H]-dopamine (DA) uptake assays. The [^3H]-DA uptake assays were performed as follows. Cultures were washed twice with warm Krebs-Ringer buffer (KRB, 16 mM sodium phosphate, 119 mM NaCl, 4.7 mM KCl, 1.8 mM CaCl2, 1.2 mM MgSO4, 1.3 mM EDTA, and 5.6 mM glucose; pH7.4) and then incubated for about 20 minutes at about 37° C. with 1 μM [^3H]-DA in KRB in order to allow for the uptake of DA. Afterwards, the cultures were washed (three times) with ice-cold KRB and the cells were collected in 1 N NaOH. Radioactivity was determined by liquid scintillation counting.
(§1) This example tests whether or not post-treatment with DM is still neuroprotective in LPS-induced neurotoxicity. Neuron-glia co-cultures as prepared in Example 1 were first treated with LPS (20 ng/ml) for twelve hours, and then LPS was removed by removing the media from the cultures and washing twice with PBS. Different concentrations of DM (10^−5, 10^−10, and 10^−14 M) were then added to the cultures and incubation was continued for another 6 or 7 days. The DA uptake and the superoxide production were measured as in Example 1 and 5.
Neuron-glia cell cultures were prepared as in Example 1, and pretreated with the various peptide fragments of Table 1 (peptide fragments were obtained from BACHEM) for 30 minutes followed by addition of 5 ng/ml of LPS. DA neurotoxicity was measured as an Example 1 at 7 days post treatment.
DA neurotoxicity was measured at 7 days post treatment as in Example 1. Dopaminergic neuronal death was determined at 7 days post treatment using immunocytochemical staining as in Example 2.
Neuron-glia cultures were prepared from the ventral mesencephalic tissues of embryonic day 13-14 rats. Dissociated cells were seeded at 1×10^5/well and 5×10^5/well to poly-D-lysine-coated 96-well and 24-well plates, respectively.

TNFα = TNFα production in neuron-glia cultures of PHOX+/+ and PHOX−/− mice; type: cell-based, mouse; settings: LPS 5 ng/ml
Procedure: (§2) Neurotoxicity was assessed by DA uptake as described in Example 1. TNFα production was measured by ELISA and iROS was determined by DCFDA as in Example 5. Results are expressed as a percentage of the control culture in FIG. 7A, pg/ml in FIG. 7B, and difference from control in FIG. 7C, respectively, and are the mean±S.E.M. of five individual experiments with triplicates in each experiment. *, P<0.05 compared with LPS culture.
(§3) The rat and mouse ventral mesencephalic neuron-glia cultures were prepared as in Example 1. […] DA neurotoxicity was measured by using the [^3H] DA uptake assay as in Example 1. The data are expressed as the percent of the control cultures and are the mean±SEM. The release of TNFα was measured with a commercially available enzyme-linked immunosorbent assay kit. *P<0.05, **P<0.01, compared to control. The amount of TNFα was measured as in Example 2.

superoxide = assay: Superoxide release (SOD-inhibitable cytochrome c reduction) after LPS; type: cell-based, rat; settings: 10^−14 M, enriched-microglia cultures, LPS 10 ng/ml
Procedure: The release of superoxide was determined by measuring the superoxide dismutase (SOD)-inhibitable reduction of cytochrome c. To measure the immediate release of superoxide from microglia-enriched or neuron-glia after stimulation, cultures grown in 96-well plates were switched to phenol red-free HBSS (50 μl/well). To each well was added 50 μl of HBSS containing vehicle or DM. The cultures were then incubated at about 37° C. for about 30 min followed by 50 μl of ferricytochrome c (100 μM) in HBSS, with and without 600 U/ml SOD, 50 μl of vehicle or LPS in HBSS. The absorbance at 550 nm was read with a SpectraMax Plus microplate spectrophotometer (Molecular Devices, Sunnyvale, Calif.).
as §1, with “5. Results are expressed as a percentage of the control cultures and are the mean±S.E.M of three to six experiments with triplicates in each experiment. ##, P<0.01 compared with control culture; *, P<0.05 compared with the LPS-treated culture.” for “5.”
Primary enriched-microglia cultures were prepared as in Example 1. […] The intracellular ROS concentrations and superoxide amounts were measured as in Example 5. The data are expressed as the percent of the control cultures and are the mean±SEM of three experiments performed in triplicate. *P<0.05, **P<0.01, compared to control.

[4] = tested on: dopaminergic neurons in PHOX^+/+ and PHOX^−/− mouse neuron-glia cultures; assay: [3H]DA uptake in neuron-glia cultures of PHOX+/+ and PHOX−/− mice; type: cell-based; settings: PHOX−/− cultures, 10^−13-10^−14 M, LPS 5 ng/ml
Procedure: To further study the role of ROS in DM-elicited neuroprotection, neuron-glia cultures were prepared from NADPH oxidase-deficient (PHOX^−/−) and wild-type (PHOX^+/+) mice.
as §2, §3

[5] = tested on: dopaminergic neurons in rat primary mesencephalic neuron-glia cultures; assay: [3H]DA uptake in LPS-treated mesencephalic neuron-glia cultures; type: cell-based; settings: femtomolar concentrations, LPS 5 ng/ml
[6] = PHOX−/− mice, 30 min pretreatment
[7] = control (PHOX+/+) mice, 10^−14 M

T1 sequence (P04839 whole entry): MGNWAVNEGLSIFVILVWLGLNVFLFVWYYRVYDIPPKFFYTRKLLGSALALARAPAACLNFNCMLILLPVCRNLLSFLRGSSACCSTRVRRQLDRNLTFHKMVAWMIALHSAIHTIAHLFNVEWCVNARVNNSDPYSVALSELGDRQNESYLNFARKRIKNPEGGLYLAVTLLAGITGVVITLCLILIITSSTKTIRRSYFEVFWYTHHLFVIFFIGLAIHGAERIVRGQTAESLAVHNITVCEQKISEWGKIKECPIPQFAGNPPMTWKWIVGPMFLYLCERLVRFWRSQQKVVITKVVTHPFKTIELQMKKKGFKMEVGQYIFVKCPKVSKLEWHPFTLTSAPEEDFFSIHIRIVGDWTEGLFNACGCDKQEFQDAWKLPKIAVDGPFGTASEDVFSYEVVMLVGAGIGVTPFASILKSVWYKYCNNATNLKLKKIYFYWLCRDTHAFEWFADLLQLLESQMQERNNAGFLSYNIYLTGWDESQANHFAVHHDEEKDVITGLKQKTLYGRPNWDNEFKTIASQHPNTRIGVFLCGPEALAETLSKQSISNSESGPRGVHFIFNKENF
T1 sequence (P13498 whole entry partner): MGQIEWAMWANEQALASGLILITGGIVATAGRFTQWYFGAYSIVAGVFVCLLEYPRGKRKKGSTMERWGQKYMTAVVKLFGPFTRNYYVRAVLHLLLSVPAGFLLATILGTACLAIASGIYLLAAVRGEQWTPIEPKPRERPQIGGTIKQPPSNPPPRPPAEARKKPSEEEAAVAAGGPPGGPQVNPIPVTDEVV

Compound | reduction of intracellular ROS concentrations [1] | binding capacity relative to control COS-7 cells (gp91/p22) | concentration of peak protection against LPS-induced DA neuron cell loss [2] | LPS-induced damage of TH immuno-reactive neurons [2] | concentration of greatest level of protection (DA uptake) [3] | enhancement of [3H]DA uptake after exposure to LPS [3] | TNFα reduction in response to LPS (TNFα; [6]) | TNFα reduction in response to LPS (TNFα; [7]) | microglial superoxide response (superoxide) | neuroprotection (DA uptake) [4] | neuroprotection against LPS-induced neurodegeneration [5]
C=CCN1CC[C@]23c4c5ccc(O)c4O[C@H]2C(=O)CC[C@@]3(O)[C@H]1C5 [naloxone, (5α)-4,5-Epoxy-3,14-dihydroxy-17-(2-propenyl)morphinan-6-one] | 65% | 150-180% | 10^−14 M | protected TH immuno-reactive neurons from LPS-induced damage | 10^−14 M | approximately 35% | failed to show any TNFα reduction | showed a reduction of TNFα | nearly control levels | failed to show neuroprotection | –
glycine-glycine-phenylalanine [GGF] | 65% | – | 10^−14 M | protected TH immuno-reactive neurons from LPS-induced damage | 10^−14 M | approximately 35% | failed to show any TNFα reduction | showed a reduction of TNFα | nearly control levels | failed to show neuroprotection | minimal peptide sequence required for neuroprotection
